# Assay results: patent publication EP4768489A1, “CYCLOBUTYL-CONTAINING COMPOUNDS” (Chia Tai Tianqing Pharmaceutical Group Co., Ltd., priority 2023, dated 2025)
# Numbering of substitutions follows the chain as printed.
# How the values were obtained:
# [1] = In vitro liver microsome stability, mouse; format: in vitro ADME; details: mouse liver microsomes 0.5 mg/mL, 37 °C, NADPH
# Procedure: Liver microsome incubation samples were prepared by mixing a PBS buffer (pH 7.4), a liver microsome solution (0.5 mg/mL), a test compound, and an NADPH + MgCl2 solution, followed by incubation at 37 °C and 300 rpm for 1 h. Zero-hour samples were prepared by mixing a PBS buffer (pH 7.4), a liver microsome solution (0.5 mg/mL), and a test compound. […]
# AR in VCaP cells = target: T1, AR in VCaP cells (Homo sapiens, UniProt P10275); experiment: Assay on degradation activity for AR in VCaP cells (HTRF human androgen receptor detection kit); format: cell-based; details: 24 h; for DC50: AR degradation; for Dmax: maximum degradation rate
# T1 construct: Assay on degradation activity for AR in VCaP cells; endogenous in cells; host or cells: VCaP cells
# T1 sequence (P10275 1-920): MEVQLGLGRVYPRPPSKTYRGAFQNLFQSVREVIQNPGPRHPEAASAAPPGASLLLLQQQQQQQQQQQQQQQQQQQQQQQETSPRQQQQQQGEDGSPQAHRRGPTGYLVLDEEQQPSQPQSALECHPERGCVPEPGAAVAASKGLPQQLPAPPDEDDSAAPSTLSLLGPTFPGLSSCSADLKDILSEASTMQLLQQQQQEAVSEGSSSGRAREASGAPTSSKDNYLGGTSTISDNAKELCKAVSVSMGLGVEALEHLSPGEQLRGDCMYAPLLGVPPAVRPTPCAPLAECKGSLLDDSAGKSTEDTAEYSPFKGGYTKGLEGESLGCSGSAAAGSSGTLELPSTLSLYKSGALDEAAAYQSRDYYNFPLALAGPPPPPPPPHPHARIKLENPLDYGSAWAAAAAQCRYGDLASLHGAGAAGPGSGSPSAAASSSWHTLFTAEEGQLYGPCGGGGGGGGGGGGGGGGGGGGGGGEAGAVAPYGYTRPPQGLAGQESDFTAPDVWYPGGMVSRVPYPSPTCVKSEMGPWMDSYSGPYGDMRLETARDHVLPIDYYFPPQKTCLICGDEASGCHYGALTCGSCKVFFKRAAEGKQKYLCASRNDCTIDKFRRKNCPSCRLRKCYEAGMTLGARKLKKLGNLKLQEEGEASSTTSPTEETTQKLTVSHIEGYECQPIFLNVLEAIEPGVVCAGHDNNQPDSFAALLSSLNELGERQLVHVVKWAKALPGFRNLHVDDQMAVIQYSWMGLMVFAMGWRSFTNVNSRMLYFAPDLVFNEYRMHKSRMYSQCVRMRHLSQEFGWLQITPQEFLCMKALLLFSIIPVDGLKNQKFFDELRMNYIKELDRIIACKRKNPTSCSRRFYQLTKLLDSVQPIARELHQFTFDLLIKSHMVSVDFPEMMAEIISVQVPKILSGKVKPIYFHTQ
# Procedure: (§1) The detection was carried out using the HTRF HUMAN ANDROGEN RECEPTOR DETECTION KIT (cisbio, 64ANDRPEG), 4× Supplemented Lysis buffer was prepared using the Blocking reagent stock solution (100×) and Lysis buffer stock solution (4×), and 1× Supplemented Lysis buffer was prepared using the 4× Supplemented Lysis buffer and ddH2O. Premixed antibody solutions were prepared using Detection buffer, Androgen Receptor Eu Cryptate antibody, and Androgen Receptor d2 antibody.
# (§2) The cells were cultured overnight in a cell incubator. […] After the cells were oscillated for 40 min at room temperature, 16 µL of the cell lysis buffer was added to a 384-well plate, the Premixed antibody solutions were added at 4 µL/well, and the mixture was left to stand at 25 °C for 2 h. […] Table 1. Degradation activity of compounds for AR in VCaP cells
# [2] = target: T2, AR in LNCaP (T878A) cells (Homo sapiens, UniProt P10275, T878A); experiment: Assay on degradation activity for AR in LNCaP (T878A) cells (HTRF); format: cell-based; details: maximum degradation rate, 24 h
# T2 construct: Assay on degradation activity for AR in LNCaP (T878A) cells; endogenous in cells; host or cells: LNCaP cells
# T2 sequence (P10275 1-920 T878A): T1 sequence (P10275 1-920) with T878A
# Procedure: as §1
# as §2, with “2.” for “1.”, “LNCaP (T878A)” for “VCaP”
smiles,measurement,setting,value
COc1cc(O[C@H]2C(C)(C)[C@H](NC(=O)c3ccc(N4CCC(CN5CCc6c(ccc7c(C8CCC(=O)NC8=O)noc67)C5)CC4)cc3)C2(C)C)ccc1C#N (some centres unmarked) [Compound 1],MLM (mouse) Remaining amount at 60 min %,[1],>70%
same,DC50,AR in VCaP cells,< 5 nM
same,Dmax,AR in VCaP cells,> 75%
same,Dmax,[2],> 90%
COc1cc(O[C@H]2C(C)(C)[C@H](NC(=O)c3ccc(N4CCC(CN5CCc6c(ccc7c(C8CCC(=O)NC8=O)noc67)C5)CC4)nc3)C2(C)C)ccc1C#N (some centres unmarked) [Compound 3],MLM (mouse) Remaining amount at 60 min %,[1],>70%
same,DC50,AR in VCaP cells,< 5 nM
same,Dmax,AR in VCaP cells,> 75%
same,Dmax,[2],> 90%
COc1cc(O[C@H]2C(C)(C)[C@H](NC(=O)c3cnc(N4CCC(CN5CCc6c(ccc7c(C8CCC(=O)NC8=O)noc67)C5)CC4)nc3)C2(C)C)ccc1C#N (some centres unmarked) [Compound 4],MLM (mouse) Remaining amount at 60 min %,[1],>70%
same,DC50,AR in VCaP cells,< 5 nM
same,Dmax,AR in VCaP cells,> 75%
same,Dmax,[2],> 90%
COc1cc(O[C@H]2C(C)(C)[C@H](NC(=O)c3cnc(N4CCC(CN5CCc6c(ccc7c(C8CCC(=O)NC8=O)noc67)C5)CC4)cn3)C2(C)C)ccc1C#N (some centres unmarked) [Compound 5],MLM (mouse) Remaining amount at 60 min %,[1],>70%
same,DC50,AR in VCaP cells,< 5 nM
same,Dmax,AR in VCaP cells,> 75%
same,Dmax,[2],> 90%
COc1cc(O[C@H]2C(C)(C)[C@H](NC(=O)c3ccc(N4CCC(CN5CCc6c(ccc7c(C8CCC(=O)NC8=O)noc67)C5)CC4)nn3)C2(C)C)ccc1C#N (some centres unmarked) [Compound 6],MLM (mouse) Remaining amount at 60 min %,[1],>70%
same,DC50,AR in VCaP cells,< 5 nM
same,Dmax,AR in VCaP cells,> 75%
same,Dmax,[2],> 90%
